IC50 data for ten molecules are collected here from the Kinase Knowledgebase extract (Sharma et al. 2016).

The target in assay [1] is MAPK14 (UniProt Q16539).
Assay [2] has as its target MAPK14 (UniProt Q16539). This is another data set of the same source.
In assay [3] the target is MAPK14 (UniProt Q16539). The source holds these as a separate data set.

SMILES strings stand for the structures.

Sequence of MAPK14 (Q16539 whole entry, looked up): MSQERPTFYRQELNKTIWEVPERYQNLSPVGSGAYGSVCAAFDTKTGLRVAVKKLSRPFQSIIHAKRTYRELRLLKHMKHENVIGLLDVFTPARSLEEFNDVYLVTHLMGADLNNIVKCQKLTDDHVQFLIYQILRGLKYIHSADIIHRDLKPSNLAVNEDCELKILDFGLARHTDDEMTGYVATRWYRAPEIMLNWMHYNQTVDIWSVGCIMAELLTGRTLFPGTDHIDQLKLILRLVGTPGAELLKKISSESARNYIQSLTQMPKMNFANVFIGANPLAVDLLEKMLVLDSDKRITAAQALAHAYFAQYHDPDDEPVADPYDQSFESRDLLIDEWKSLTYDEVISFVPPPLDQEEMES

By IC50 is commonly meant the concentration at which inhibition is half-maximal. In the case of `Fc1ccc(-c2ncn(C3CCNCC3)c2-c2ccnc(Oc3ccc(OCc4ccccc4)cc3)c2)cc1`, the IC50 against MAPK14 [1] was under 50 µM.
On to `Fc1ccc(Oc2nccc(-c3c(-c4ccc(F)cc4)ncn3CCCN3CCOCC3)n2)cc1`, for which the IC50 in the assay with MAPK14 [2] and against MAPK14 [3] was under 50 µM in each case.
In turn, `Cc1ccc(Oc2cc(-c3c(-c4ccc(F)cc4)ncn3C3CCNCC3)ccn2)cc1` displayed an IC50 at MAPK14 [1] of under 50 µM.
Consider `Fc1ccc(Oc2cc(-c3c(-c4ccc(F)cc4)ncn3C3CCNCC3)ccn2)cc1`, for which the IC50 on MAPK14 [1], with MAPK14 [2] and against MAPK14 [3] was under 50 µM each time.
For the molecule `Fc1ccc(-c2ncn(C3CCNCC3)c2-c2ccnc(Oc3ccc(Cl)cc3)c2)cc1`, the IC50 on MAPK14 [1] is under 50 µM.
Regarding `Fc1ccc(-c2ncn(C3CCNCC3)c2-c2ccnc(Oc3ccccc3)c2)cc1`, the IC50 on MAPK14 [1], with MAPK14 [2] and on MAPK14 [3] was under 50 µM in each case.
Regarding `Cn1nnnc1Sc1cc(-c2c(-c3ccc(F)cc3)ncn2C2CCNCC2)ccn1`, the IC50 on MAPK14 [1], in the assay with MAPK14 [2] and against MAPK14 [3] was under 50 µM each time.
On to `Fc1ccc(-c2ncn(C3CCNCC3)c2-c2ccnc(Sc3ccccc3)c2)cc1`, for which the IC50 against MAPK14 [1] and at MAPK14 [3] was under 50 µM in each case.
For `COc1ccc(Oc2cc(-c3c(-c4ccc(F)cc4)ncn3C3CCNCC3)ccn2)cc1`, the IC50 against MAPK14 [1], with MAPK14 [2] and against MAPK14 [3] was under 50 µM each time.
As for `Fc1ccc(-c2ncn(CCCN3CCOCC3)c2-c2ccnc(Oc3ccccc3)n2)cc1`, the half-inhibitory concentration (IC50) on MAPK14 [1] and in the assay with MAPK14 [2] was under 50 µM each time.
